These compounds were tested on NO production in BV-2 cells [NO 생성; BV-2 세포] (assay: Nitric oxide (NO) quantification (nitrite, Griess reaction) in LPS-activated BV-2 cells). Conditions: 20 μM, LPS 0.2 ㎍/mL, 24 h co-treatment, nitrite by Griess at 540 nm, 1440 min.
Assay type: cell-based

Structure (SMILES) | NO (% of LPS)
CCCCNc1nc(NC(C)c2ccccc2)c2cnn(Cc3ccccc3)c2n1 (stereo not drawn) [24i, 1-벤질-N6-뷰틸-N4-(1-페닐에틸)-1H-피라졸로[3,4-d]피리미딘-4,6-디아민] | 42±0.8 % of LPS

Same assay, conditions: Mus musculus, BV-2, 24 h, 20 μM, LPS 0.2 ㎍/mL, 24 h co-treatment, nitrite by Griess at 540 nm

Structure (SMILES) | activity at 20 µM
CSc1nc2c(cnn2C(C)(C)C)c(=S)[nH]1 [9d, 1-t-뷰틸-6-(메틸티오)피라졸로[3,4-d]피리미딘-4-티온] | 108 ± 5%
CSc1nc(NCc2ccccc2)c2cnn(C)c2n1 [12a, 1-메틸-4-벤질아미노-6-(메틸티오)피라졸로[3,4-d]피리미딘] | 77 ± 2%
CSc1nc(NC(C)(C)CO)c2cnn(C)c2n1 [12b, 1-메틸-4-[(1-하이드록시-2,2-다이메틸)에틸]아미노-6-(메틸티오)피라졸로[3,4-d]피리미딘] | 90 ± 7%
CSc1nc(N(CCO)CCO)c2cnn(C)c2n1 [12c, 1-메틸-4-비스(1-하이드록시에틸)아미노-6-(메틸티오)피라졸로[3,4-d]피리미딘] | 115 ± 6%
CSc1nc(NCCCn2ccnc2)c2cnn(C)c2n1 [12d, 1-메틸-4-[3-(이미다졸-1-일)]프로필아미노-6-(메틸티오)피라졸로[3,4-d]피리미딘] | 75 ± 1%
CSc1nc(NCCO)c2cnn(C)c2n1 [12e, 1-메틸-4-(1-하이드록시에틸)아미노-6-(메틸티오)피라졸로[3,4-d]피리미딘] | 91 ± 2%
CSc1nc(NCc2ccc(F)cc2)c2cnn(C)c2n1 [12f, 1-메틸-4-(4-플루오로벤질)아미노-6-(메틸티오)피라졸로[3,4-d]피리미딘] | 72 ± 2%
CSc1nc(NCCc2ccccc2)c2cnn(C)c2n1 [12g, 1-메틸-4-(2-페닐에틸)아미노-6-(메틸티오)피라졸로[3,4-d]피리미딘] | 92 ± 1%
COc1ccc(CNc2nc(SC)nc3c2cnn3C)cc1 [12h, 1-메틸-4-(4-메톡시벤질)아미노-6-(메틸티오)피라졸로[3,4-d]피리미딘] | 33 ± 10%
CSc1nc(NCc2ccccc2)c2c(-c3ccccc3)nn(Cc3ccccc3)c2n1 [32a, 1-벤질-3-페닐-4-벤질아미노-6-(메틸티오)피라졸로[3,4-d]피리미딘] | 53 ± 3%
CSc1nc(NCc2ccc(F)cc2)c2c(-c3ccccc3)nn(Cc3ccccc3)c2n1 [32c, 1-벤질-3-페닐-4-(4-플루오로벤질)아미노-6-(메틸티오)피라졸로[3,4-d]피리미딘] | 69 ± 8%
C=CCNc1nc(SC)nc2c1c(-c1ccccc1)nn2Cc1ccccc1 [32d, 1-벤질-3-페닐-4-알릴아미노-6-(메틸티오)피라졸로[3,4-d]피리미딘] | 46 ± 2%
CSc1nc(Cl)c(C(=O)c2ccccc2)c(Cl)n1 [compound 29, 1-[(4,6-다이클로로-2-(메틸티오)피리미딘)-5-일]-페닐케톤] | 35 ± 12%
C=CCNc1nc(SC)nc2c1cnn2C [화합물 12i, 1-메틸-4-알릴아미노-6-(메틸티오)피라졸로[3,4-d]피리미딘] | 101 ± 3%
COc1ccccc1CNc1nc(SC)nc2c1cnn2C [화합물 12j, 1-메틸-4-(2-메톡시벤질)아미노-6-(메틸티오)피라졸로[3,4-d]피리미딘] | 40 ± 5%
COc1cccc(CNc2nc(SC)nc3c2cnn3C)c1 [화합물 12k, 1-메틸-4-(3-메톡시벤질)아미노-6-(메틸티오)피라졸로[3,4-d]피리미딘] | 94 ± 5%
CSc1nc(NCc2ccccc2C)c2cnn(C)c2n1 [화합물 12l, 1-메틸-4-(2-메틸벤질)아미노-6-(메틸티오)피라졸로[3,4-d]피리미딘] | 69%
CSc1nc(NCc2ccc(Cl)cc2)c2cnn(C)c2n1 [화합물 12m, 1-메틸-4-(4-클로로벤질)아미노-6-(메틸티오)피라졸로[3,4-d]피리미딘] | 53 ± 6%
CSc1nc(NC(C)c2ccccc2)c2cnn(C)c2n1 (stereo not drawn) [화합물 12o, 1-메틸-6-(메틸티오)-N-(1-페닐에틸)-1H-피라졸로[3,4-d]피리미딘-4-아민] | 70 ± 5%

Structure (SMILES) | activity at 20 µM
C=CCn1ncc2c(NCc3ccccc3)nc(SC)nc21 [화합물 13a, 1-알릴-4-벤질아미노-6-(메틸티오)피라졸로[3,4-d]피리미딘] | 15 ± 25%
C=CCNc1nc(SC)nc2c1cnn2CC=C [화합물 13b, 1-알릴-4-알릴아미노-6-(메틸티오)피라졸로[3,4-d]피리미딘] | 86 ± 9%
C=CCn1ncc2c(NCCO)nc(SC)nc21 [화합물 13c, 1-알릴-4-(1-하이드록시에틸)아미노-6-(메틸티오)피라졸로[3,4-d]피리미딘] | 77 ± 7%
C=CCn1ncc2c(NCc3ccc(F)cc3)nc(SC)nc21 [화합물 13d, 1-알릴-4-(4-플루오로벤질)아미노-6-(메틸티오)피라졸로[3,4-d]피리미딘] | 14 ± 39%
C=CCn1ncc2c(NCc3ccccc3OC)nc(SC)nc21 [화합물 13e, N-(2-메톡시벤질)-1-알릴-6-(메틸티오)-1H-피라졸로[3,4-d]피리미딘-4-아민] | 22.4 ± 0.4%
C=CCn1ncc2c(NCc3ccc(Cl)cc3)nc(SC)nc21 [화합물 13f, N-(4-클로로벤질)-1-알릴-6-(메틸티오)-1H-피라졸로[3,4-d]피리미딘-4-아민] | 11 ± 2.9%
C=CCn1ncc2c(NCc3ccc(C)cc3)nc(SC)nc21 [화합물 13g, N-(4-메틸벤질)-1-알릴-6-(메틸티오)-1H-피라졸로[3,4-d]피리미딘-4-아민] | 12.2 ± 3.8%
C=CCn1ncc2c(NCc3ccccc3C)nc(SC)nc21 [화합물 13h, N-(2-메틸벤질)-1-알릴-6-(메틸티오)-1H-피라졸로[3,4-d]피리미딘-4-아민] | 25 ± 0.3%
C=CCn1ncc2c(NC(C)c3ccccc3)nc(SC)nc21 (stereo not drawn) [화합물 13i, 1-알릴-6-(메틸티오)-N-(1-페닐에틸)-1H-피라졸로[3,4-d]피리미딘-4-아민] | 9.5 ± 3.8%
C=CCn1ncc2c(NCc3cccc(OC)c3)nc(SC)nc21 [화합물 13j, N-(3-메톡시벤질)-1-알릴-6-(메틸티오)-1H-피라졸로[3,4-d]피리미딘-4-아민] | 87 ± 0.2%
C=CCn1ncc2c(NC(C)(C)CO)nc(SC)nc21 [화합물 13k, 2-(1-알릴-6-(메틸티오)-1H-피라졸로[3,4-d]피리미딘-4-일아미노)-2-메틸프로판-1-올] | 15.9 ± 0.6%
C=CCn1ncc2c(NCCCC)nc(SC)nc21 [화합물 13l, 1-알릴-N-뷰틸-6-(메틸티오)-1H-피라졸로[3,4-d]피리미딘-4-아민] | 43.3 ± 1.1%
C=CCn1ncc2c(NCc3ccc(OC)cc3)nc(SC)nc21 [화합물 13m, N-(4-메톡시벤질)-1-알릴-6-(메틸티오)-1H-피라졸로[3,4-d]피리미딘-4-아민] | 8.6 ± 2.7%
C=CCn1ncc2c(NCc3ccccn3)nc(SC)nc21 [화합물 13n, 1-알릴-6-(메틸티오)-N-((피리딘-2-일)메틸)-1H-피라졸로[3,4-d]피리미딘-4-아민] | 17.6 ± 0.7%
C=CCn1ncc2c(NCc3ccccc3Cl)nc(SC)nc21 [화합물 13o, N-(2-클로로벤질)-1-알릴-6-(메틸티오)-1H-피라졸로[3,4-d]피리미딘-4-아민] | 17.5 ± 1.5%
CSc1nc(NCc2ccccc2)c2cnn(CCNC(=O)OC(C)(C)C)c2n1 [화합물 14a, 1-(N-t-Boc-아미노에틸)-4-벤질아미노-6-(메틸티오)피라졸로[3,4-d]피리미딘] | 58 ± 6%
COc1ccccc1CNc1nc(SC)nc2c1cnn2CCNC(=O)OC(C)(C)C [화합물 14c, 1-(N-t-Boc-아미노에틸)-4-(2-메톡시벤질)아미노-6-(메틸티오)피라졸로[3,4-d]피리미딘] | 54 ± 5%
COc1cccc(CNc2nc(SC)nc3c2cnn3CCNC(=O)OC(C)(C)C)c1 [화합물 14d, 1-(N-t-Boc-아미노에틸)-4-(3-메톡시벤질)아미노-6-(메틸티오)피라졸로[3,4-d]피리미딘] | 49 ± 12%
CSc1nc(NCc2ccc(Cl)cc2)c2cnn(CCNC(=O)OC(C)(C)C)c2n1 [화합물 14e, 2-(4-(4-클로로벤질아미노)-6-(메틸티오)-1H-피라졸로[3,4-d]피리미딘-1-일)에틸카바메이트] | 26.8 ± 0.1%

Same assay, conditions: Mus musculus, BV-2, 24 h, 30 μM, LPS 0.2 ㎍/mL, 24 h co-treatment, nitrite by Griess at 540 nm

Structure (SMILES) | activity at 30 µM
COc1nc(SC)nc2[nH]ncc12 [10a, 4-메톡시-6-(메틸티오)피라졸로[3,4-d]피리미딘] | 91 ± 2.4%
CCOc1nc(SC)nc2[nH]ncc12 [10b, 4-에톡시-6-(메틸티오)피라졸로[3,4-d]피리미딘] | 93 ± 9%
CSc1nc(NCc2ccccc2)c2c(I)n[nH]c2n1 [11a, 3-아이오도-4-벤질아미노-6-(메틸티오)피라졸로[3,4-d]피리미딘] | 27 ± 11%
CSc1nc(NCCO)c2c(I)n[nH]c2n1 [11b, 3-아이오도-4-(1-하이드록시에틸)아미노-6-(메틸티오)피라졸로[3,4-d]피리미딘] | 82 ± 7%
COc1nc(SC)nc2[nH]nc(I)c12 [11d, 3-아이오도-4-메톡시-6-(메틸티오)피라졸로[3,4-d]피리미딘] | 91 ± 3%
CSc1nc(Cl)c2cn[nH]c2n1 [compound 4, 4-클로로-6-(메틸티오)피라졸로[3,4-d]피리미딘] | 19 ± 4.1%

Reference: patent publication KR20130112248A, “피라졸로피리미딘 유도체 화합물, 이를 포함하는 산화질소 생성 억제용 조성물 및 뇌신경 질환 예방 및 치료용 약학적 조성물” (한국과학기술연구원, priority 2012, dated 2013)
